Results taken from US7183317B2, “Compounds and methods to increase plasma HDL cholesterol levels and improve HDL functionality” (Atherogenics, Inc., priority 2004, dated 2007).
Where “and” joins values, the source holds several entries; their conditions need not be identical. Equal entries are not always repeated.

Legend:
[1] = system: HepG2 cells; experiment: Uptake/delivery of 3[H] cholesteryl ester-HDL to HepG2 cells; type: cell-based, human; settings: 12.5 μM, 50 μg/ml 3[H] CE-HDL, 3.5 h, 37° C., vs 100% delivery without compound
Procedure: ^3[H]cholesteryl Hexadecyl Ether-labeled HDL was prepared as described by Rodrigueza et al. (Rodrigueza W. V. et al. (1999) J. Biol. Chem. 274:20344–20350). 40 μCi of ^3[H]hexadecyl ether (40–60 Ci/mmol, NEN life Sciences Products) were incubated with 5 mg of HDL3 and 240 mg of heat-inactivated lipoprotein-deficient plasma, 0.01% aprotinin in a polypropylene tube sealed with nitrogen gas for 40 h at 37° C. according to the method of Terpstra et al. ^3[H]-CE enriched HDL was re-isolated by flotation ultracentrifugation and dialyzed against phosphate-buffered saline (PBS). To perform CE uptake studies, HepG2 cells, seeded in 6 or 12 well plates were grown for 2 days till 80% confluent and, then treated with compounds in 1% RSA-DMEM medium for 24 h. The next day, cells were treated with 12.5 μM compounds and 50 μg/mL of ^3[H]-CE HDL for 3.5 h at 37° C. After incubation, cells were washed 4 times with PBS/BSA and 2 times with PBS, followed by addition of 0.1 N NAOH. Cells were collected, and radioactivity was measured in counts per minute and expressed as percent of ^3[H]-CE delivered to cells.
HepG2 cells were cultured as described above and incubated with 50 μg/ml of ^3[H] CE-HDL particles and compounds for 3.5 h at 37° C. […] CE delivery to HepG2 cells resulting from treatment with indicated compounds compared to a 100% delivery in the absence of any compound. […] CE, as also described by Jin et al. (Jin, F. et al. (1997) Atheroscler. Thromb Vasc Biol. 17: 2020–2028).

[2] = system: SR-BI/II receptors; experiment: 3[H] CE delivery to HepG2 cells with anti SR-BI/II antibody blocking; type: cell-based
Procedure: It was important to discern whether or not Compound A was acting through the SR-BI/II receptors to increase the delivery of cholesterol. HepG2 cells were incubated with anti-mouse SR-BI/II antibodies for 45 min. Compound A was then added, and the cells were incubated with 30 μg/ml of ^3[H] CE-HDL for 3.5 h at 37° C. Anti-mouse SR-BI/II antibodies (1.0 mg/mL) reduced delivery of ^3[H] CE by 76%, while Compound A increase the delivery of ^3[H] CE to HepG2 cells by 56%. […] CE to cells provoked by Compound A. Further the anti SR-BI/II antibodies decreased the delivery of ^3[H] CE from 156% to 28% (FIG. 4).

[3] = system: hypercholesterolemic hamsters; type: in vivo; settings: two weeks; for percent increase of HDL cholesterol: 150 mg/kg/d in chow; for percent increase of HDL cholesterol / percent lowering of HDLc: compared to untreated controls
Text: Male Golden Syrian hamsters weighing 110–120 g were obtained from Charles River Laboratories (Wilmington, Mass.). Hamsters were housed individually with wood chip bedding and soft nesting material with lights on a 6 A.M. and off at 6 p.m. Upon arrival the hamsters were acclimated for three days on standard rodent chow and water (Purina rodent chow 5001) ad libitum. Prior to dosing, the hamsters were made hypercholesterolemic by feeding them a powdered diet supplemented with 0.5% cholesterol and 10% coconut oil (Harlan Teklad diet #97235) for one week. Water was added to the powdered chow to form a paste and the chow paste rolled into balls with each animal receiving 20 g of chow paste per day in stainless steel bowls. Chow intake was recorded daily. Body weights were recorded after one week and at the end of the end of the study. Hamsters were distributed into treatment groups after the one-week pretreatment period such that each group had similar average body weights.
Compound A homogenized in methylcellulose/Tween-20 using a polytron PT2100 homogenizer (Brinkman) before adding it to the high cholesterol chow paste and administered as an admixture at the same time each morning for two weeks. At the end of the treatment period the hamsters were fasted in the late afternoon on the day prior to blood collection. Fasting was achieved by transferring the hamsters to clean cages and removing chow stored in cheek pouches. Hamsters were anesthetized with ketamine/rompun solution. When unresponsive to toe pinch and still respiring, blood was collected via cardiac puncture from which plasma was separated and frozen at −80° C.
Lipoproteins were isolated from whole plasma by Fast Phase Liquid Chromatography (FPLC). Cholesterol and triglyceride concentrations in the different lipoprotein fractions were determined by enzymatic methods using a CX-5 chemical analyzer and standard Beckman reagents.
A Dunnetts test was used to compare the experimental and control groups. P<0.05 was considered significant.
The effect of Compound A on HDLc levels was assessed using hypercholesterolemic hamsters. Male Golden Syrian hamsters were fed as described in Materials and Methods. Compound A homogenized as described above before adding it to the high cholesterol chow paste and administered as an admixture at the same time each morning for two weeks. At the end of the treatment period the hamsters were fasted in the late afternoon on the day prior to blood collection. Hamsters were anesthetized with ketamine/rompun solution. When unresponsive to toe pinch and still respiring, blood was collected via cardiac puncture from which plasma was separated and frozen at −80° C.
LDL cholesterol was not affected. Lipid profiles were obtained according to the method published by Lee, A. and coworkers (W. Innis-Whitehouse, X. Li, V. Brown and N. Lee., J. Lipid Res. 39, 679 (1998)).

[4] = system: HepG2 cells; experiment: apoAI-HDL elevation cell-based screen (apoAI accumulation by ELISA); parameters: species or system human; settings: for increase of apoAI accumulation / circulating apoAI-HDL: 1 mM
Procedure: HepG2 cells were obtained from the American Type Culture Collection (Rockville, Md.). Fetal bovine serum (FBS) was purchased from Gibco Laboratories. Cells were cultured in minimum essential medium (MEM) containing 10% FBS, and 100 μg/mL of streptomycin, 100 unit/mL of penicillin, and 4 mM of glutamine (Gibco/BRL). Cells were grown for 2 days till they are 80% confluent in 6-well, or 12-well plates before studies. In all cases medium was changed every other day.
To measure apoAI, 96-well microtiter plates were coated with a 1:1000 diluted mixture of three monoclonal antibodies against human apoAI (A05, A17, and A44) for 2 h and incubated in succession with HDL3 (0 to 15 ng/well), sheep polyclonal anti-apoAI serum (Boehringer Mannheim), alkaline phosphatase-labeled rabbit anti-sheep (Cappel), and p-nitrophenyl phosphate (1 mg/mL in 10 mmol/L ethanolamine, 0.5 mmol/L MgCl2, pH 9.5), for 2, 1 and 1 h respectively at 37° C. The plates were washed three times between different incubations. The absorbance at 405 nm was determined by using a Bio-Rad model 550 microplate reader (Bio-Rad).
The effect of Compound A on apoAI-HDL elevation was measured using a cell-based screen assay. The hepatic model, HepG2 cells, was used to observe the accumulation of apoAI as a result of secretion and/or uptake of apoAI; both processes taking place in the liver. HepG2 cells were treated with compounds for 24 hours or 48 hours in DMEM containing 1% RSA. apoAI accumulation was measured by ELISA as described in Materials and Methods.

[5] = system: apoAI; experiment: apoAI synthesis; type: cell-based
[6] = system: HDL holoprotein; experiment: Hepatic clearance/uptake of HDL holoprotein; type: cell-based
Text: The trichloroacetic-precipitable labeled apoAI-HDL in the conditioned medium represents degraded labeled apoAI-HDL. After washing and detaching, cells are centrifuged. Labeled apoAI-HDL in the cellular fraction represents internalized HDL holoprotein; whereas, label in the supernatant represents cell surface bound apoAI-HDL that has been dissociated. Increased amounts of labeled HDL in cells treated with compounds versus cells not treated with compounds indicates increased degradation, internalization, or binding to the cell surface. Compounds are selected which decrease the amount of apoAI-HDL label in the cellular fraction of the cells contacted with a test compound compared to the amount of label in the cellular fraction of the cells not contacted with the test compound. […] Label in the conditioned medium represents degraded labeled-HDL. After washing and detaching, cells are centrifuged. Label in the cellular fraction represents internalized HDL holoprotein; whereas, label in the supernatant represents cell surface bound apoAI-HDL that has been dissociated. Increased amounts of label in cells treated with compounds versus cells not treated with compounds indicates increased degradation, internalization, or binding of apoAI-HDL to the cell surface. […]

[7] = 12.5 μM, compared to control (absence of compounds)

`CC(C)(Sc1cc(C(C)(C)C)c(O)c(C(C)(C)C)c1)Sc1cc(C(C)(C)C)c(OC[C@@H](O)[C@@H](O)[C@@H](O)C(=O)O)c(C(C)(C)C)c1` [Compound A, 5-[4-[1-[(3,5-bis(1,1-dimethylethyl)-4-hydroxyphenyl)thio]-1-methylethyl]thio-2,6-bis(1,1-dimethylethyl)phenoxy]-2(R),3(R),4(R)-trihydroxypentanoic acid] was tested, and the “percent increase of 3[H]CE delivery to HepG2 cells” value (“percent increase of 3[H]CE delivery” for short) [1] was 109% and 108%, the “percent increase of 3[H]CE delivery” value ([2]; 30 μg/ml 3[H] CE-HDL, 3.5 h, 37° C., no antibody) was 56% and the “delivery of 3[H] CE, percent of control” value ([2]; Compound A in presence of anti SR-BI/II antibodies) was 28%. For the same compound, the “delivery of 3[H] CE, percent of control” value ([2]; Compound A without antibodies) was 156%, the “percent increase of HDL cholesterol” value [3] was 30% and the “effect on LDL cholesterol” value ([3]; 150 mg/kg/d) was “not affected”. The “percent increase of apoAI (apoAI-HDL) accumulation” value [4, 7] was 122.5% and 122% and the “percent increase of apoAI (apoAI-HDL) accumulation” value ([4]; 25 μM, compared to control) was 132.5% and 132%.

For `CC(C)(Sc1cc(C(C)(C)C)c(O)c(C(C)(C)C)c1)Sc1cc(C(C)(C)C)c(OCC(O)CNCC(=O)O)c(C(C)(C)C)c1` (centres unmarked) [Compound C, Glycine, N-[3-[4-[1-[[3,5-bis(1,1-dimethylethyl)-4-hydroxyphenyl]thio]-methylethyl]thio-2,6-bis(1,1-dimethylethyl)phenoxy]-2-hydroxypropyl]], the “percent increase of HDL cholesterol” value [3] was 40% and the “percent increase of apoAI (apoAI-HDL) accumulation” value [4, 7] was ~15%.

`CC(C)(Sc1cc(C(C)(C)C)c(O)c(C(C)(C)C)c1)Sc1cc(C(C)(C)C)c(OC[C@H]2OC(O)[C@H](O)[C@@H](O)[C@@H]2O)c(C(C)(C)C)c1` (some centres unmarked) [Compound D] was tested, and the “percent lowering of HDLc” value ([3]; 150 mg/kg/d) was ~80% and the “percent decrease of apoAI (apoAI-HDL) accumulation” value (from here on “percent decrease of apoAI”) ([4]; 12.5 μM, compared to control) was “about 10%”.

With `O=C(O)c1cccnc1` [Niacin, Nicotinic acid, reference compound] the “increase of apoAI accumulation / circulating apoAI-HDL” value [4] was “increased” and the “increase of apoAI accumulation / circulating apoAI-HDL” value ([4]; listed as niacin) was 10%.

In the case of `CC(C)(Sc1cc(C(C)(C)C)c(O)c(C(C)(C)C)c1)Sc1cc(C(C)(C)C)c(O)c(C(C)(C)C)c1` [Probucol, 4,4′-(isopropylidenedithio)bis(2,6-di-tert-butylphenol), reference compound], the “effect on synthesis of apoAI (newly synthesized apoAI)” value [5] is reported as “reduced”, the HDL holoprotein uptake [6] is reported as “reduced” and the “percent increase of 3[H]CE delivery” value [1] is reported as 29%. The “percent increase of 3[H]CE delivery” value ([1]; listed as probucol) was “increased” and the “percent decrease of apoAI” value ([4]; 12.5 μM, compared to control) was 23%.

In the case of `CC(C)(Sc1cc(C(C)(C)C)c(O)c(C(C)(C)C)c1)Sc1cc(C(C)(C)C)c(OC[C@@H](O)[C@H](O)[C@H](O)[C@H](O)CO)c(C(C)(C)C)c1` [Compound E], the “percent lowering of HDLc” value ([3]; 150 mg/kg/d) is reported as ~40% and the “percent decrease of apoAI” value ([4]; 12.5 μM, compared to control) is reported as “about 10%”.

For `CC(C)(Sc1cc(C(C)(C)C)c(O)c(C(C)(C)C)c1)Sc1cc(C(C)(C)C)c(OCCCCOS(=O)(=O)O)c(C(C)(C)C)c1` [B, Sulfuric acid, mono-(4-{2,6-di-tert-butyl-4-[1-(3,5-di-tert-butyl-4-hydroxy-phenyl-sulfanyl)-1-methylethylsulfanyl]-phenoxy}-butyl)ester], the “percent increase of apoAI (apoAI-HDL) accumulation” value [4, 7] was ~30%.

`CC1=C(/C=C/C(C)=C/C=C/C(C)=C/C(=O)O)C(C)(C)CCC1` [Retinoic acid, reference compound] was tested, and the “percent increase of apoAI accumulation” value ([4]; 10 μM, positive control) was 53.6%.
